# Data taken from US9821024B2, “Immunomodulatory compositions” (Sigmoid Pharma Limited, priority 2010, dated 2017).
# Test system: NFκB
# Conditions: HeLa cells; FIG. 29
compound,measurement,value
NNc1nncc2ccccc12 [Hydralazine],Concentration of maximal NFκB activation,10 µg/mL
